Values quoted from earlier work as cited in patent publication US20170332633A1, “DOUBLE SALT IONIC LIQUIDS OF HERBICIDES” (THE BOARD OF TRUSTEES OF THE UNIVERSITY OF ALABAMA, priority 2014, published 2017).

System: rat

SMILES | rat LD50 [mg/kg]
COc1c(Cl)ccc(Cl)c1C(=O)O [Dicamba, 3,6-dichloro-2-methoxy benzoic acid] | 1039
O=C(O)COc1ccc(Cl)cc1Cl [Example 2.4-D, 2,4-dichlorophenoxyacetic acid] | 639 to 764
